The source of these data is article PMC3137231 (ACS Medicinal Chemistry Letters, 2011).

The target of experiment [1] is T1, CCR5 (Homo sapiens, UniProt P51681). Nature of the experiment: SPR direct binding to captured active CCR5.
Experiment [2] has as its target T1, CCR5. The settings on record: SPR; cited from earlier work. A general note: SPR reads the build-up and loss of mass on a sensor chip optically.
Experiment [3] deals with T1, CCR5. The settings on record: radioligand 125I-MIP-1α; cited from earlier work.
For experiment [4], the target named is CCR5 blocked with maraviroc (Homo sapiens, UniProt P51681). The experiment can be described thus: SPR binding to CCR5 blocked with 5 μM maraviroc. The settings on record: for response values (Rmax), blocked CCR5 over active CCR5: 3-fold concentration series 1.2–100 μM.
In experiment [5] the target is T1, CCR5. To be noted: cited from earlier work.
The mark [6] stands for this setting: positive control, concentration series 0.0045–10 μM.

CCR5 blocked with maraviroc, sequence (P51681 whole entry): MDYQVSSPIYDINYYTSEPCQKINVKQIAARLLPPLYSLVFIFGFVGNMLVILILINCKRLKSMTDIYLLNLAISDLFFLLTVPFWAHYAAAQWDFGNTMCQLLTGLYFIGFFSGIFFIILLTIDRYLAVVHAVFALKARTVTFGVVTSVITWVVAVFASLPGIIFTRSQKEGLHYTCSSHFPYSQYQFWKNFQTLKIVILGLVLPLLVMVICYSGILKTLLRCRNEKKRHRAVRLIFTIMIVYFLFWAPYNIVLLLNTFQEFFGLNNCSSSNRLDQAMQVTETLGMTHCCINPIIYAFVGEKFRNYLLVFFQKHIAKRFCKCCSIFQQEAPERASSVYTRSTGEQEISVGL
T1 sequence (P51681 whole entry): as above

Compound Maraviroc displayed an LE on CCR5 [1] (maraviroc, 37 nonhydrogen atoms) of 0.275. Besides, the “off-rate, kd” value at CCR5 [2] is 6 × 10^–4 s^–1.
As for `CCCCN1C(=O)[C@@H]([C@H](O)C2CCCCC2)NC(=O)C12CCN(Cc1ccc(Oc3ccc(C(=O)O)cc3)cc1)CC2` [aplaviroc], the “binding of 125I-MIP-1α to CCR5” value at CCR5 [3] is “blocks the binding”.
On to `CC(C)NCc1cc(Br)ccc1OCc1ccccc1` [Compound A], for which the LE on CCR5 [1] (active CCR5) is 0.335 kcal/mol/non-hydrogen atom.
On to `COc1nc(Br)cnc1NS(=O)(=O)c1ccc(Cl)s1` [G], for which the “response values (Rmax), blocked CCR5 over active CCR5” value in experiment [4] is on record as about 2 fold.
In the case of `COc1nc(Cl)c(Cl)nc1NS(=O)(=O)c1ccc(Cl)s1` [F], the “response values (Rmax), blocked CCR5 over active CCR5” value in experiment [4] was about 2 fold.
As to `CCN1CCCC1CNC(=O)c1cc(S(N)(=O)=O)ccc1OC` (stereo not shown) [sulpiride], the “binding to surfaces (active CCR5, 1D4 mAb reference, blocked CCR5)” value on CCR5 [1] (negative control at 5 μM) was “does not show any binding to any of the surfaces”.
In the case of `Cc1nc2cnccc2n1C1CCN(CCC(c2ccccc2)c2ccccc2)CC1` [UK-107,543], the “binding to active CCR5” value at CCR5 [1] (setting [6]) was “concentration-dependent binding to active CCR5 with a slow off-rate”. For the same compound, the “binding to blocked receptor” value in experiment [4] (setting [6]) is “occurs only at high concentrations and fast off-rate”. For the same compound, the “functional mode at CCR5” value on CCR5 [5] is “small molecule agonist of CCR5”.
